Measurements taken from patent US8802597B2, “Herbicidal pyrimidines” (E I du Pont de Nemours and Company, priority 2003, dated 2014).

Columns and labels:
Test in all cases: Test C pre/postemergence
Format in all cases: in vivo
[1] = system: goosegrass (Eleusine indica); conditions: for Goosegrass plant response rating: scale 0 to 100 (0 no effect, 100 complete control)
In short: (§1)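 Percent control is a visual rating (0 none, 100 complete) taken against untreated plants after 12 to 14 days of greenhouse growth. Applications were made preemergence to seeded pots and postemergence to plants at the 1- to 4-leaf stage, in a non-phytotoxic surfactant-containing solvent.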

[2] = system: velvetleaf (Abutilon theophrasti); conditions: for Velvetleaf plant response rating: scale 0 to 100 (0 no effect, 100 complete control)
In short: as §1

[3] = system: crabgrass (Digitaria sanguinalis); conditions: for Crabgrass plant response rating: scale 0 to 100 (0 no effect, 100 complete control)
In short: as §1

[4] = system: eastern black nightshade (Solanum ptycanthum); conditions: Preemergence
In short: as §1

[5] = system: cocklebur (Xanthium strumarium); conditions: for Cocklebur plant response rating: scale 0 to 100 (0 no effect, 100 complete control)
In short: as §1

corn (Zea mays) = conditions: for Corn plant response rating: scale 0 to 100 (0 no effect, 100 complete control)
In short: as §1

[6] = system: lambsquarters (Chenopodium album); conditions: for Lambsquarters plant response rating: scale 0 to 100 (0 no effect, 100 complete control)
In short: as §1

[7] = system: bermudagrass (Cynodon dactylon); conditions: for Bermudagrass plant response rating: scale 0 to 100 (0 no effect, 100 complete control)
In short: as §1

[8] = Postemergence, 250 g ai/ha, scale 0 to 100
[9] = Postemergence, 500 g ai/ha, scale 0 to 100
[10] = Preemergence, 62 g ai/ha, scale 0 to 100, 0 no effect, 100 complete control
[11] = Preemergence, 125 g ai/ha, scale 0 to 100
[12] = Preemergence, 250 g ai/ha, scale 0 to 100
[13] = Preemergence, 500 g ai/ha, scale 0 to 100
[14] = 62 g ai/ha, scale 0 to 100, 0 no effect, 100 complete control
[15] = Preemergence, 16 g ai/ha, scale 0 to 100, 0 no effect, 100 complete control
[16] = Preemergence, 31 g ai/ha, scale 0 to 100, 0 no effect, 100 complete control

## COC(=O)c1nc(C2CC2C)nc(N)c1Br (stereo not shown) [Compound 28]
[1]; Postemergence, 62 g ai/ha
  Goosegrass plant response rating: 0
[1]; Postemergence, 125 g ai/ha
  Goosegrass plant response rating: 0
[1]; [8]
  Plant response rating, Goosegrass: 0
[1]; [9]
  Plant response rating, Goosegrass: 15
[1]; [10]
  Plant response rating, Goosegrass: 0
[1]; [11]
  Plant response rating, Goosegrass: 0
[1]; [12]
  Plant response rating, Goosegrass: 0
[1]; [13]
  Plant response rating, Goosegrass: 20
[2]; Postemergence, 62 g ai/ha
  Velvetleaf plant response rating: 45
[2]; Postemergence, 125 g ai/ha
  Velvetleaf plant response rating: 50
[2]; [8]
  Plant response rating, Velvetleaf: 70
[2]; [9]
  Plant response rating, Velvetleaf: 75
[2]; [10]
  Plant response rating, Velvetleaf: 50
[2]; [11]
  Plant response rating, Velvetleaf: 55
[2]; [12]
  Plant response rating, Velvetleaf: 95
[2]; [13]
  Plant response rating, Velvetleaf: 100
[3]; Postemergence, 62 g ai/ha
  Crabgrass plant response rating: 0
[3]; Postemergence, 125 g ai/ha
  Crabgrass plant response rating: 0
[3]; [8]
  Plant response rating, Crabgrass: 0
[3]; [9]
  Plant response rating, Crabgrass: 20
[4]; [14]
  Plant response rating, Nightshade: 100
[4]; 125 g ai/ha, scale 0 to 100
  Plant response rating, Nightshade: 100
[4]; 250 g ai/ha, scale 0 to 100
  Plant response rating, Nightshade: 100
[4]; 500 g ai/ha, scale 0 to 100
  Plant response rating, Nightshade: 100
[5]; Postemergence, 62 g ai/ha
  Cocklebur plant response rating: 85
[5]; Postemergence, 125 g ai/ha
  Cocklebur plant response rating: 95
[5]; [8]
  Plant response rating, Cocklebur: 95
[5]; [9]
  Plant response rating, Cocklebur: 100
[5]; [10]
  Plant response rating, Cocklebur: 90
[5]; [11]
  Plant response rating, Cocklebur: 95
[5]; [12]
  Plant response rating, Cocklebur: 95
[5]; [13]
  Plant response rating, Cocklebur: 100
Corn (Zea mays); Postemergence, 62 g ai/ha
  Corn plant response rating: 0
Corn (Zea mays); Postemergence, 125 g ai/ha
  Corn plant response rating: 0
Corn (Zea mays); [8]
  Plant response rating, Corn: 0
Corn (Zea mays); [9]
  Plant response rating, Corn: 0
Corn (Zea mays); [10]
  Plant response rating, Corn: 0
Corn (Zea mays); [11]
  Plant response rating, Corn: 0
Corn (Zea mays); [12]
  Plant response rating, Corn: 0
Corn (Zea mays); [13]
  Plant response rating, Corn: 0
[6]; Postemergence, 62 g ai/ha
  Lambsquarters plant response rating: 60
[6]; Postemergence, 125 g ai/ha
  Lambsquarters plant response rating: 75
[6]; [8]
  Plant response rating, Lambsquarters: 85
[6]; [9]
  Plant response rating, Lambsquarters: 95
[6]; [10]
  Plant response rating, Lambsquarters: 95
[6]; [11]
  Plant response rating, Lambsquarters: 100
[6]; [12]
  Plant response rating, Lambsquarters: 100
[6]; [13]
  Plant response rating, Lambsquarters: 100
[7]; Postemergence, 62 g ai/ha
  Bermudagrass plant response rating: 0
[7]; Postemergence, 125 g ai/ha
  Bermudagrass plant response rating: 0
[7]; [8]
  Plant response rating, Bermudagrass: 0
[7]; [9]
  Plant response rating, Bermudagrass: 0
[7]; [10]
  Plant response rating, Bermudagrass: 0
[7]; [11]
  Plant response rating, Bermudagrass: 20
[7]; [12]
  Plant response rating, Bermudagrass: 30
[7]; [13]
  Plant response rating, Bermudagrass: 35

## COC(=O)c1nc(C2CC2)nc(N=CN(C)C)c1Br [Compound 19]
[1]; Postemergence, 16 g ai/ha
  Plant response rating (scale of 0 to 100), Goosegrass: 0
[1]; Postemergence, 31 g ai/ha
  Plant response rating (scale of 0 to 100), Goosegrass: 0
[1]; Postemergence, 62 g ai/ha
  Goosegrass plant response rating: 0
[1]; Postemergence, 125 g ai/ha
  Goosegrass plant response rating: 0
[1]; [15]
  Plant response rating, Goosegrass: 0
[1]; [16]
  Plant response rating, Goosegrass: 0
[1]; [10]
  Plant response rating, Goosegrass: 0
[1]; [11]
  Plant response rating, Goosegrass: 0
[2]; Postemergence, 16 g ai/ha
  Plant response rating (scale of 0 to 100), Velvetleaf: 30
[2]; Postemergence, 31 g ai/ha
  Plant response rating (scale of 0 to 100), Velvetleaf: 40
[2]; Postemergence, 62 g ai/ha
  Velvetleaf plant response rating: 50
[2]; Postemergence, 125 g ai/ha
  Velvetleaf plant response rating: 60
[2]; [15]
  Plant response rating, Velvetleaf: 25
[2]; [16]
  Plant response rating, Velvetleaf: 35
[2]; [10]
  Plant response rating, Velvetleaf: 40
[2]; [11]
  Plant response rating, Velvetleaf: 65
[3]; Postemergence, 16 g ai/ha
  Plant response rating (scale of 0 to 100), Crabgrass: 20
[3]; Postemergence, 31 g ai/ha
  Plant response rating (scale of 0 to 100), Crabgrass: 40
[3]; Postemergence, 62 g ai/ha
  Crabgrass plant response rating: 70
[3]; Postemergence, 125 g ai/ha
  Crabgrass plant response rating: 70
[3]; [15]
  Plant response rating, Crabgrass: 0
[3]; [16]
  Plant response rating, Crabgrass: 0
[3]; [10]
  Plant response rating, Crabgrass: 0
[3]; [11]
  Plant response rating, Crabgrass: 0
[4]; 16 g ai/ha, scale 0 to 100, 0 no effect, 100 complete control
  Plant response rating, Nightshade: 0
[4]; 31 g ai/ha, scale 0 to 100, 0 no effect, 100 complete control
  Plant response rating, Nightshade: 40
[4]; [14]
  Plant response rating, Nightshade: 100
[4]; 125 g ai/ha, scale 0 to 100
  Plant response rating, Nightshade: 100
[5]; Postemergence, 16 g ai/ha
  Plant response rating (scale of 0 to 100), Cocklebur: 25
[5]; Postemergence, 31 g ai/ha
  Plant response rating (scale of 0 to 100), Cocklebur: 25
[5]; Postemergence, 62 g ai/ha
  Cocklebur plant response rating: 50
[5]; Postemergence, 125 g ai/ha
  Cocklebur plant response rating: 90
[5]; [15]
  Plant response rating, Cocklebur: 15
[5]; [16]
  Plant response rating, Cocklebur: 30
[5]; [10]
  Plant response rating, Cocklebur: 65
[5]; [11]
  Plant response rating, Cocklebur: 80
Corn (Zea mays); Postemergence, 16 g ai/ha
  Plant response rating (scale of 0 to 100), Corn: 0
Corn (Zea mays); Postemergence, 31 g ai/ha
  Plant response rating (scale of 0 to 100), Corn: 0
Corn (Zea mays); Postemergence, 62 g ai/ha
  Corn plant response rating: 0
Corn (Zea mays); Postemergence, 125 g ai/ha
  Corn plant response rating: 35
Corn (Zea mays); [15]
  Plant response rating, Corn: 0
Corn (Zea mays); [16]
  Plant response rating, Corn: 0
Corn (Zea mays); [10]
  Plant response rating, Corn: 0
Corn (Zea mays); [11]
  Plant response rating, Corn: 0
[6]; Postemergence, 16 g ai/ha
  Plant response rating (scale of 0 to 100), Lambsquarters: 70
[6]; Postemergence, 31 g ai/ha
  Plant response rating (scale of 0 to 100), Lambsquarters: 90
[6]; Postemergence, 62 g ai/ha
  Lambsquarters plant response rating: 90
[6]; Postemergence, 125 g ai/ha
  Lambsquarters plant response rating: 95
[6]; [15]
  Plant response rating, Lambsquarters: 75
[6]; [16]
  Plant response rating, Lambsquarters: 100
[6]; [10]
  Plant response rating, Lambsquarters: 100
[6]; [11]
  Plant response rating, Lambsquarters: 100
[7]; Postemergence, 16 g ai/ha
  Plant response rating (scale of 0 to 100), Bermudagrass: 0
[7]; Postemergence, 31 g ai/ha
  Plant response rating (scale of 0 to 100), Bermudagrass: 5
[7]; Postemergence, 62 g ai/ha
  Bermudagrass plant response rating: 30
[7]; Postemergence, 125 g ai/ha, scale 0 to 100
  Plant response rating, Bermudagrass: 45
[7]; [15]
  Plant response rating, Bermudagrass: 0
[7]; [16]
  Plant response rating, Bermudagrass: 0
[7]; [10]
  Plant response rating, Bermudagrass: 0
[7]; [11]
  Plant response rating, Bermudagrass: 0

## CCOC(=O)Cc1nc(C2CC2)nc(N=CN(C)C)c1Br [Compound 33]
[1]; [10]
  Plant response rating, Goosegrass: 0
[1]; [11]
  Plant response rating, Goosegrass: 0
[1]; [12]
  Plant response rating, Goosegrass: 0
[1]; [13]
  Plant response rating, Goosegrass: 0
[2]; [10]
  Plant response rating, Velvetleaf: 0
[2]; [11]
  Plant response rating, Velvetleaf: 20
[2]; [12]
  Plant response rating, Velvetleaf: 60
[2]; [13]
  Plant response rating, Velvetleaf: 85
[3]; [10]
  Plant response rating, Crabgrass: 0
[3]; [11]
  Plant response rating, Crabgrass: 20
[3]; [12]
  Plant response rating, Crabgrass: 100
[3]; [13]
  Plant response rating, Crabgrass: 100
[4]; [14]
  Plant response rating, Nightshade: 0
[4]; 125 g ai/ha, scale 0 to 100
  Plant response rating, Nightshade: 50
[4]; 250 g ai/ha, scale 0 to 100
  Plant response rating, Nightshade: 95
[4]; 500 g ai/ha, scale 0 to 100
  Plant response rating, Nightshade: 100
[5]; [10]
  Plant response rating, Cocklebur: 0
[5]; [11]
  Plant response rating, Cocklebur: 0
[5]; [12]
  Plant response rating, Cocklebur: 90
[5]; [13]
  Plant response rating, Cocklebur: 95
Corn (Zea mays); [10]
  Plant response rating, Corn: 0
Corn (Zea mays); [11]
  Plant response rating, Corn: 0
Corn (Zea mays); [12]
  Plant response rating, Corn: 30
Corn (Zea mays); [13]
  Plant response rating, Corn: 40
[6]; [12]
  Plant response rating, Lambsquarters: 85
[7]; [10]
  Plant response rating, Bermudagrass: 0
[7]; [11]
  Plant response rating, Bermudagrass: 0
[7]; [12]
  Plant response rating, Bermudagrass: 0
[7]; [13]
  Plant response rating, Bermudagrass: 0
